Reference: US6617314B2, “Injectable formulations of avermectins and milbemycins” (Bayer Aktiengesellschaft, priority 1996, dated 2003)

Test: solubility of ivermectin in solvents
Format: physicochemical
Text: The solubility of ivermectin in benzyl alcohol is >40% by weight and in castor oil ˜4% by weight.

## 22,23-dihydroavermectin B1 [ivermectin]
Solvent benzyl alcohol
  solubility in benzyl alcohol: > 40 % by weight
Solvent castor oil
  solubility in castor oil: ~4 % by weight
